pIC50: −log10 of the molar value. Active and inactive are the calls of the source. The rule behind the calls is not given here.
Tests used:
[1] = biological target: Insulin-like growth factor 1 receptor (Homo sapiens, UniProt P08069)
Description: Inhibition of IGF-1R phosphorylation in IGF-1 stimulated human HepG2 cells preincubated with compound for 30 mins followed by IGF-1 stimulation for 10 mins by Immunoblot analysis

[2] = system: NCI-H2228; assay: Antitumor activity against ALK positive human NCI-H2228 cells xenografted in CB-17/SCID orthotopic brain tumor mouse model assessed as reduction in tumor burden in brain at 50 mg/kg, po administered daily and measured after 64 days by H&E staining based analysis; assay type: functional, organism-based; details: time 64.0 day
[3] = biological target: Serine/threonine-protein kinase Nek9 (Homo sapiens, UniProt Q8TD19); assay: Inhibition of human NEK9 using MBP as substrate in presence of [gamma33P]-ATP by HotSpot assay
[4] = biological target: Tyrosine-protein kinase SYK (Homo sapiens) (UniProt P43405); assay: Inhibition of human SYK at 1 uM using poly (Glu, Tyr)4:1 as substrate in presence of [gamma33P]-ATP by HotSpot assay relative to control
[5] = biological target: Dual specificity mitogen-activated protein kinase kinase 1 (Homo sapiens) (UniProt Q02750); assay: Inhibition of human MAP2K1 at 1 uM using ERK2 as substrate in presence of [gamma33P]-ATP by HotSpot assay relative to control
[6] = biological target: Maternal embryonic leucine zipper kinase (Homo sapiens, UniProt Q14680); assay: Inhibition of human MELK using KKLNRTLSFAEPG as substrate in presence of [gamma33P]-ATP by HotSpot assay
[7] = biological target: Dual specificity protein kinase CLK1 (Homo sapiens, UniProt P49759); assay: Inhibition of human CLK1 using MBP as substrate in presence of [gamma33P]-ATP by HotSpot assay
[8] = system: EML4-ALK (Homo sapiens), Q9UM73+Q9HC35 [G1269A]; details: BaF3, time 3-5 weeks
[9] = biological target: Serine/threonine-protein kinase Chk2 (Homo sapiens, UniProt O96017, I157T); assay: Inhibition of human CHEK2 I157T mutant using KKKVSRSGLYRSPSMPENLNRPR as substrate in presence of [gamma33P]-ATP by HotSpot assay
[10] = biological target: Serine/threonine-protein kinase Nek6 (Homo sapiens) (UniProt Q9HC98); assay: Inhibition of human NEK6 at 1 uM using casein as substrate in presence of [gamma33P]-ATP by HotSpot assay relative to control
[11] = system: NCI-H838; details: time 72 hrs
[12] = system: EML4-ALK (Homo sapiens), Q9UM73+Q9HC35 [L1152P]; details: BaF3, dose 500.0 nmol/L, time 3-5 weeks
[13] = biological target: Serine/threonine-protein kinase MARK1 (Homo sapiens, UniProt Q9P0L2); assay: Inhibition of human MARK1 using KKKVSRSGLYRSPSMPENLNRPR as substrate in presence of [gamma33P]-ATP by HotSpot assay
[14] = biological target: Inhibitor of nuclear factor kappa-B kinase subunit alpha (Homo sapiens) (UniProt O15111); assay: Inhibition of human CHUK at 1 uM using KKKKERLLDDRHDSGLDSMKDEE as substrate in presence of [gamma33P]-ATP by HotSpot assay relative to control
[15] = biological target: Ribosomal protein S6 kinase alpha-1 (Homo sapiens, UniProt Q15418); assay: Inhibition of human RPS6KA1 using KKLNRTLSVA as substrate in presence of [gamma33P]-ATP by HotSpot assay
[16] = system: NCI-H2228; assay: Antitumor activity against ALK positive human NCI-H2228 cells xenografted in SCID beige mouse assessed as tumor regression at 10 to 50 mg/kg, po administered once daily for 21 days and measured 28 days after treatment; assay type: functional, organism-based; details: dose 10-50 mg/kg, time 28.0 day
[17] = biological target: Tyrosine-protein kinase JAK3 (Homo sapiens) (UniProt P52333); assay: Inhibition of human JAK3 at 1 uM using MBP as substrate in presence of [gamma33P]-ATP by HotSpot assay relative to control
[18] = biological target: Casein kinase II subunit alpha' (Homo sapiens) (UniProt P19784); assay: Inhibition of human CK2a2 at 1 uM using RRRDDDSDDD as substrate in presence of [gamma33P]-ATP by HotSpot assay relative to control
[19] = system: NCI-H2228; details: time 72 hrs
[20] = biological target: Serine/threonine-protein kinase 3 (Homo sapiens) (UniProt Q13188); assay: Inhibition of human STK3 at 1 uM using MBP as substrate in presence of [gamma33P]-ATP by HotSpot assay relative to control
[21] = biological target: Myosin light chain kinase 2, skeletal/cardiac muscle (Homo sapiens) (UniProt Q9H1R3); assay: Inhibition of human MYLK2 at 1 uM using KKLNRTLSFAEPG as substrate in presence of [gamma33P]-ATP by HotSpot assay relative to control
[22] = biological target: Vascular endothelial growth factor receptor 2 (Homo sapiens, UniProt P35968); assay: Inhibition of human VEGFR2 using poly (Glu, Tyr)4:1 as substrate in presence of [gamma33P]-ATP by HotSpot assay
[23] = biological target: Mitogen-activated protein kinase kinase kinase 8 (Homo sapiens) (UniProt P41279); assay: Inhibition of human MAP3K8 at 1 uM using MEK1 as substrate in presence of [gamma33P]-ATP by HotSpot assay relative to control
[24] = biological target: Death-associated protein kinase 1 (Homo sapiens) (UniProt P53355); assay: Inhibition of human DAPK1 at 1 uM using KKLNRTLSFAEPG as substrate in presence of [gamma33P]-ATP by HotSpot assay relative to control
[25] = biological target: Tyrosine-protein kinase Fyn (Homo sapiens, UniProt P06241); assay: Inhibition of human FYN using poly (Glu, Tyr)4:1 as substrate in presence of [gamma33P]-ATP by HotSpot assay
[26] = biological target: Mitogen-activated protein kinase kinase kinase kinase 2 (Homo sapiens) (UniProt Q12851); assay: Inhibition of human GCK at 1 uM using MBP as substrate in presence of [gamma33P]-ATP by HotSpot assay relative to control
[27] = biological target: Muscle, skeletal receptor tyrosine-protein kinase (Homo sapiens) (UniProt O15146); assay: Inhibition of human MUSK at 1 uM using MBP as substrate in presence of [gamma33P]-ATP by HotSpot assay relative to control
[28] = biological target: Serine/threonine-protein kinase STK11 (Homo sapiens) (UniProt Q15831); assay: Inhibition of human STK11 at 1 uM using LSNLYHQGKFLQTFCGSPLYRRR as substrate in presence of [gamma33P]-ATP by HotSpot assay relative to control
[29] = biological target: Serine/threonine-protein kinase TAO1 (Homo sapiens, UniProt Q7L7X3); assay: Inhibition of human TAOK1 using MBP as substrate in presence of [gamma33P]-ATP by HotSpot assay

Sequence of Tyrosine-protein kinase Fyn (P06241 whole entry): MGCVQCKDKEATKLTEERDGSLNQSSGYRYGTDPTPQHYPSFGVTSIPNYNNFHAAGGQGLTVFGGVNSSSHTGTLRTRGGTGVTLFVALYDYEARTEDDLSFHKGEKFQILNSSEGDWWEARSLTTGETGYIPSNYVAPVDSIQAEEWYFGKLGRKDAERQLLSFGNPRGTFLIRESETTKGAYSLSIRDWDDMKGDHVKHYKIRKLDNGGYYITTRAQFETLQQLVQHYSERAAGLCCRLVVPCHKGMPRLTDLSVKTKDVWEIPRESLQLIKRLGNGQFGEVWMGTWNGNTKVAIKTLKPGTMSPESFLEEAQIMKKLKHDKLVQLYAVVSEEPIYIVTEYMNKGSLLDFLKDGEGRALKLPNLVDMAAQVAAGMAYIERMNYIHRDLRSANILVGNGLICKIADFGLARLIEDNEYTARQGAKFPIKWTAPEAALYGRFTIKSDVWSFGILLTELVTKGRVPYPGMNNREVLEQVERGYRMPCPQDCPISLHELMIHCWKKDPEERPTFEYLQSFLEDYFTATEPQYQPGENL
Sequence of Casein kinase II subunit alpha' (Homo sapiens) (P19784 whole entry, looked up): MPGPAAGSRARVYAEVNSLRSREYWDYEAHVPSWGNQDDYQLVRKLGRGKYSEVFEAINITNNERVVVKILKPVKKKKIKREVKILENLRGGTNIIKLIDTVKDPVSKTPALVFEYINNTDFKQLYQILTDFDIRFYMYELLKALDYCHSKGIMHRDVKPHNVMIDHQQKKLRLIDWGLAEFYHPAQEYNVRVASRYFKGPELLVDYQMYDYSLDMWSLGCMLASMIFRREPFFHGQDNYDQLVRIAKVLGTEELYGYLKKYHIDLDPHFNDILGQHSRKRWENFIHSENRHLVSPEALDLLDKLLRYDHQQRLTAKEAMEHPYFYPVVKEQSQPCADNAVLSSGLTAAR
Sequence of Serine/threonine-protein kinase 3 (Homo sapiens) (Q13188 whole entry): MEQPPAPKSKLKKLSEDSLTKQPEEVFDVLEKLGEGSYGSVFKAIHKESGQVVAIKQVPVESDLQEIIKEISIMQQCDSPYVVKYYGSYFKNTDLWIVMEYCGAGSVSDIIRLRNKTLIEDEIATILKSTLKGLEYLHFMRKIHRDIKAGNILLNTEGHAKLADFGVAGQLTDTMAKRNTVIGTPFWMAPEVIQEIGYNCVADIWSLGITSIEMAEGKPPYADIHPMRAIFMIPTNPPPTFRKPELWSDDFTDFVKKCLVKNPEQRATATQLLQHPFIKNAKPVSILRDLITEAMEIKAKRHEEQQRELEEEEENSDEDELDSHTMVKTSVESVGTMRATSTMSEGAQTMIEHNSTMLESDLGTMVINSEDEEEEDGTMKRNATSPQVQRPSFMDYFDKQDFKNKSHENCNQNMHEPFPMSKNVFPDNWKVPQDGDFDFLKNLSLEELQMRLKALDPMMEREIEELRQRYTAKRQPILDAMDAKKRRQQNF
Sequence of Serine/threonine-protein kinase Nek6 (Homo sapiens) (Q9HC98 whole entry): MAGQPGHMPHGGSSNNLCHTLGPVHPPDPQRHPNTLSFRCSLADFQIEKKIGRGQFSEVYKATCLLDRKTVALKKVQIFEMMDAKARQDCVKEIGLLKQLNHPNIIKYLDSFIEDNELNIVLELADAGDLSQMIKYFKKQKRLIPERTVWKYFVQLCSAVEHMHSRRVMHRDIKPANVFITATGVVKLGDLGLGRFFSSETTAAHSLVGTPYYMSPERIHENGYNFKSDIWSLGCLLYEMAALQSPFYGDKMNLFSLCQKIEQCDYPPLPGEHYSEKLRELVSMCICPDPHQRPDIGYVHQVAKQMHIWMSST
Sequence of Serine/threonine-protein kinase Nek9 (Q8TD19 whole entry): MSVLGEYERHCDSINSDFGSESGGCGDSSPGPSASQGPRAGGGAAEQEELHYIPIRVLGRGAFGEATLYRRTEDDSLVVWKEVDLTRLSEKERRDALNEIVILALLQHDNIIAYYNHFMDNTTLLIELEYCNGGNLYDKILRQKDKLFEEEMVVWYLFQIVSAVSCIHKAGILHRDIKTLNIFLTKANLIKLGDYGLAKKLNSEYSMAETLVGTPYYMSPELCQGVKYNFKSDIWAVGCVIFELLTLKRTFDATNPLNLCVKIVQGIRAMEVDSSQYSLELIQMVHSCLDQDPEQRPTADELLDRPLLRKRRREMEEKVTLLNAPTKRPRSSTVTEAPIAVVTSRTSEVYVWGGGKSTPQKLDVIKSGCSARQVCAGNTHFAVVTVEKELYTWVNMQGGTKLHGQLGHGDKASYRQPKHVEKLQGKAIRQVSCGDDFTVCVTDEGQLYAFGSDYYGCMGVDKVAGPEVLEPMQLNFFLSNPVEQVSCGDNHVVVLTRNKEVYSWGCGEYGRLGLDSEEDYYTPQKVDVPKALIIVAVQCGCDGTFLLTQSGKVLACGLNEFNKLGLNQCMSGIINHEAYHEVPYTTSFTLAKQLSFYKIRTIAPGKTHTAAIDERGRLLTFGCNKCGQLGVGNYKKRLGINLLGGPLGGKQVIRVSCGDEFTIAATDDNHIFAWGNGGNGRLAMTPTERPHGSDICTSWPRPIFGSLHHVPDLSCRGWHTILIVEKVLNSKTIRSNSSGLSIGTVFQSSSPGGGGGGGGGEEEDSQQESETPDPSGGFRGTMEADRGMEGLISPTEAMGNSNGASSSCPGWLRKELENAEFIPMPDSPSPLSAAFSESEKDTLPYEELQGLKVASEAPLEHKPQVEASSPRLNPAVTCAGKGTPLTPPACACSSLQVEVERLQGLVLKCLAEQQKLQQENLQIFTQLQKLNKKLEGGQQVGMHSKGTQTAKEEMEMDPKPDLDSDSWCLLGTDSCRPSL
Sequence of Ribosomal protein S6 kinase alpha-1 (Q15418 whole entry): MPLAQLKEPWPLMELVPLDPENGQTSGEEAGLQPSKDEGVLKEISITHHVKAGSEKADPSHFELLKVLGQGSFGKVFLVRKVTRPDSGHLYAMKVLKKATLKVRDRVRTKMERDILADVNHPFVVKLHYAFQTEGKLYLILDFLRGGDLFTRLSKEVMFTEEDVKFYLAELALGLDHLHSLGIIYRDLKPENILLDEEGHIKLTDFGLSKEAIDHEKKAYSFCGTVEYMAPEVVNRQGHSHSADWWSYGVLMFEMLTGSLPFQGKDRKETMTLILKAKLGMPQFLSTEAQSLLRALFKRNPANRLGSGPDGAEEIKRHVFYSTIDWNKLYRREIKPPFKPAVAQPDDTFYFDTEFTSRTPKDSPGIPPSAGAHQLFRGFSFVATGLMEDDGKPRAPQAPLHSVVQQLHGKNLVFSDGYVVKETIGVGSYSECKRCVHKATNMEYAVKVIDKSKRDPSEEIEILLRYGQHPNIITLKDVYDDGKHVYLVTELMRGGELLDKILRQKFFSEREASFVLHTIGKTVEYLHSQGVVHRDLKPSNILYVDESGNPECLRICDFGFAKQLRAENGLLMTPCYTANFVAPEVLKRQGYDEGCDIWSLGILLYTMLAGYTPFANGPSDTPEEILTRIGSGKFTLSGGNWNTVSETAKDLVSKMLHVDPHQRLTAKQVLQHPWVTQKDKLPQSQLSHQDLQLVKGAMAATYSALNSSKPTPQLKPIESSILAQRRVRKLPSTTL
Sequence of Serine/threonine-protein kinase STK11 (Homo sapiens) (Q15831 whole entry): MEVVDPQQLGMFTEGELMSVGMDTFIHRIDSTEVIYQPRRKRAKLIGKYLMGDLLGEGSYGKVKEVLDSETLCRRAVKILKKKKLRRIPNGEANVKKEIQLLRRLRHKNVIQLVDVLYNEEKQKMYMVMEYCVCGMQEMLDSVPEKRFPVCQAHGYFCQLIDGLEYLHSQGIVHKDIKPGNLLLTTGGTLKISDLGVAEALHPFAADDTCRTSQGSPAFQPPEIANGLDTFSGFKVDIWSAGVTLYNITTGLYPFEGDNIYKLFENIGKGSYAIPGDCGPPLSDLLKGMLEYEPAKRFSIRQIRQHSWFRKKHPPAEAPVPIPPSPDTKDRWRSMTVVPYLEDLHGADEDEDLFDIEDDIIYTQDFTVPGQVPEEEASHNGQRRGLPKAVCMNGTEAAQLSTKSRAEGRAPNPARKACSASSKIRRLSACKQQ
Sequence of Muscle, skeletal receptor tyrosine-protein kinase (Homo sapiens) (O15146 whole entry): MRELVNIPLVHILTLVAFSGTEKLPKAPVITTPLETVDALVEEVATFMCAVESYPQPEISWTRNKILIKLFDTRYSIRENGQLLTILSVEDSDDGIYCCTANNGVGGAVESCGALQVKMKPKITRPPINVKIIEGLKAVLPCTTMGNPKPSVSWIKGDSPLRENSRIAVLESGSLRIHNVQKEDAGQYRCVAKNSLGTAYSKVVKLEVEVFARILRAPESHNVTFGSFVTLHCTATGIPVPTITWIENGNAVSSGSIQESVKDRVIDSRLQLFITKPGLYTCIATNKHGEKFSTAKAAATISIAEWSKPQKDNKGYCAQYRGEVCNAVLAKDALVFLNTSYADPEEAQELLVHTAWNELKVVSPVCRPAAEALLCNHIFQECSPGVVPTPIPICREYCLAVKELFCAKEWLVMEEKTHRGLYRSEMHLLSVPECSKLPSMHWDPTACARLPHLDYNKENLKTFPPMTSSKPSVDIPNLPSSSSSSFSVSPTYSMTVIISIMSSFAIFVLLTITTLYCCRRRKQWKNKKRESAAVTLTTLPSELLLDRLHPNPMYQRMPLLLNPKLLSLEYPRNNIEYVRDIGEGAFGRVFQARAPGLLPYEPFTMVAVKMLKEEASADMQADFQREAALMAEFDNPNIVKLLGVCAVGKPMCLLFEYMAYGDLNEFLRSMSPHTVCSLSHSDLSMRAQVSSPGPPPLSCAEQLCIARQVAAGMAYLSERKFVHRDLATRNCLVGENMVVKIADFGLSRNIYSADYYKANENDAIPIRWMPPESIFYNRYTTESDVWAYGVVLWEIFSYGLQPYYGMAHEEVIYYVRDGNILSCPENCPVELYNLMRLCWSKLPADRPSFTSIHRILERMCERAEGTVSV

With `COc1cc(N2CCC(N3CCN(C)CC3)CC2)ccc1Nc1ncc(Cl)c(Nc2ccccc2P(C)(C)=O)n1` [BRIGATINIB] the pIC50 [1] was 6.83, the Activity [2] was “Active” and the pIC50 [3] was < 6.00. The inhibition [4] was < 90%, the inhibition [5] was < 90% and the pIC50 [6] was 6.05. For the same molecule, the pIC50 [7] was 7.64, the IC90 [8] was 22 nM and the pIC50 [9] was 8.25. The inhibition [10] was < 90%, the GI50 [11] was 503 nM and the inhibition [12] was “Active”. The pIC50 [13] was 6.90, the inhibition [14] was < 90% and the pIC50 [15] was 7.52. For the same molecule, the Activity [16] was “Active”, the inhibition [17] was < 90% and the inhibition [18] was < 90%. The GI50 [19] was 10 nM, the inhibition [20] was < 90% and the inhibition [21] was < 90%. The pIC50 [22] was 6.09, the inhibition [23] was < 90% and the inhibition [24] was < 90%. The pIC50 [25] was 6.70, the inhibition [26] was < 90% and the inhibition [27] was < 90%. The inhibition [28] was < 90% and the pIC50 [29] was 6.31.
